Source: ChEMBL document CHEMBL3877326, “Design, synthesis and evaluation of some N-methylenebenzenamine derivatives as selective acetylcholinesterase (AChE) inhibitor and antioxidant to enhance learning and memory” (Bioorg Med Chem, 2017)
Activity calls are given as the source filed them. No cut-off for these calls is given here.

Columns and labels:
[1] = system: Rattus norvegicus; assay: Cognition enhancement activity in Charles Foster albino rat model of spatial working memory assessed as escape latency at 20 mg/kg, po for administered from day 1 to 10 measured 1 hr post last dose on day 7 by Morris water maze test (reference value: 17.45 +/- 0.62 sec); assay type: functional
[2] = Antioxidant activity assessed as H2O2 radical scavenging activity at 10 to 100 ug/ml incubated for 10 mins by UV-Visible spectrophotometric method; assay type: functional
[3] = system: Rattus norvegicus; assay: Cognition enhancement activity in Charles Foster albino rat model of spatial working memory assessed as escape latency at 20 mg/kg, po for administered from day 1 to 10 measured 1 hr post last dose on day 10 by Morris water maze test (reference value: 14.12 +/- 0.78 sec); assay type: functional
[4] = target: T1, Acetylcholinesterase (Electrophorus electricus, UniProt O42275); assay: Inhibition of electric eel AChE using acetylthiocholine iodide as substrate preincubated for 20 mins followed by substrate addition by Ellman's method
T1 sequence (O42275 whole entry): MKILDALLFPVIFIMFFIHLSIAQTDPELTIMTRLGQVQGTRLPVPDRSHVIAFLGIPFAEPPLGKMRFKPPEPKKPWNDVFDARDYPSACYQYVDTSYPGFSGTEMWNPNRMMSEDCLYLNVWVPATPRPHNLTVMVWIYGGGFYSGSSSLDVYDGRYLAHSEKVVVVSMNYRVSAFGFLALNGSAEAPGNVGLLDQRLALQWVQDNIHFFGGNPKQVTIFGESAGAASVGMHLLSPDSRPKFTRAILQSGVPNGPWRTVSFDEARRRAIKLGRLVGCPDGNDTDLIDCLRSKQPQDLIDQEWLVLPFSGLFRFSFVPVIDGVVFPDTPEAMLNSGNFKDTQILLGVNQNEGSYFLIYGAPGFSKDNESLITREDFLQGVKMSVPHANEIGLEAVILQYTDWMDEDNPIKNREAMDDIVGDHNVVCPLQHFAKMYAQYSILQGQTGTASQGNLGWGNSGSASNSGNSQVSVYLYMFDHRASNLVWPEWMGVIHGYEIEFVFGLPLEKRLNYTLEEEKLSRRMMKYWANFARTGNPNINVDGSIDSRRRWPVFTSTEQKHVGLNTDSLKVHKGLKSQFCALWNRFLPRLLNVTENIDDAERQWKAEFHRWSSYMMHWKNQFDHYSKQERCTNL

[5] = system: Rattus norvegicus; assay: Cognition enhancement activity in Charles Foster albino rat model of spatial working memory assessed as escape latency at 20 mg/kg, po for administered from day 1 to 10 measured 1 hr post last dose on day 9 by Morris water maze test (reference value: 17.38 +/- 0.79 sec); assay type: functional
[6] = target: Cholinesterase (Equus caballus, UniProt P81908); assay: Inhibition of horse serum BuChE using butyrylthiocholine iodide as substrate preincubated for 20 mins followed by substrate addition by Ellman's method; assay type: ADME
Cholinesterase, sequence (P81908 whole entry): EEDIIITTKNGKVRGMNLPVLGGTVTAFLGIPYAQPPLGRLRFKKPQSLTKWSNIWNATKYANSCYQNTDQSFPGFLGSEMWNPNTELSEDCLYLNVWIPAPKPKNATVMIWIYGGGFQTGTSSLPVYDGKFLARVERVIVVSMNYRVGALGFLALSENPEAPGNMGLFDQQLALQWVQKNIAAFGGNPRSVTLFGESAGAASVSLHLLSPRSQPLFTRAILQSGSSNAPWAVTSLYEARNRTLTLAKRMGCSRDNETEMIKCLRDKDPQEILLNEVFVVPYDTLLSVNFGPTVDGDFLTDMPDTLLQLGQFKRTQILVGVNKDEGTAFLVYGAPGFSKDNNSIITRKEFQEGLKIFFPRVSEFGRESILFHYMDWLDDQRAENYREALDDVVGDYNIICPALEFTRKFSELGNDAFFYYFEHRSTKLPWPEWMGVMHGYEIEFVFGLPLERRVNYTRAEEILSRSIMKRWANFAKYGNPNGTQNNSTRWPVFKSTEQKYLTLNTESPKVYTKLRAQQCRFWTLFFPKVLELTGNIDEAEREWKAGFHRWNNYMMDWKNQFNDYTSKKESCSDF

[7] = system: Rattus norvegicus; assay: Ex vivo inhibition of AChE in Charles Foster albino rat brain assessed as substrate hydrolyzed per mg protein at 30 mg/kg, po measured after 1 hr using acetylthiocholine iodide as substrate by Ellman's method (reference value: 46.56 +/- 0.66 nmol/min); assay type: functional
[8] = system: Rattus norvegicus; assay: Cognition enhancement activity in Charles Foster albino rat model of spatial working memory assessed as escape latency at 30 mg/kg, po for administered from day 1 to 10 measured 1 hr post last dose on day 7 by Morris water maze test (reference value: 17.45 +/- 0.62 sec); assay type: functional
[9] = Antioxidant activity assessed as DPPH radical scavenging activity at 10 to 100 ug/ml incubated for 30 mins under dark condition; assay type: functional
[10] = system: Rattus norvegicus; assay: Cognition enhancement activity in Charles Foster albino rat model of spatial working memory assessed as escape latency at 30 mg/kg, po for administered from day 1 to 10 measured 1 hr post last dose on day 8 by Morris water maze test (reference value: 16.97 +/- 0.8 sec); assay type: functional
[11] = system: Rattus norvegicus; assay: Cognition enhancement activity in Charles Foster albino rat model of spatial working memory assessed as escape latency at 10 mg/kg, po for administered from day 1 to 10 measured 1 hr post last dose on day 9 by Morris water maze test (reference value: 17.38 +/- 0.79 sec); assay type: functional
[12] = system: Rattus norvegicus; assay: Cognition enhancement activity in Charles Foster albino rat model of spatial working memory assessed as escape latency at 10 mg/kg, po for administered from day 1 to 10 measured 1 hr post last dose on day 10 by Morris water maze test (reference value: 14.12 +/- 0.78 sec); assay type: functional
[13] = system: Rattus norvegicus; assay: Cognition enhancement activity in Charles Foster albino rat model of spatial working memory assessed as escape latency at 20 mg/kg, po for administered from day 1 to 10 measured 1 hr post last dose on day 8 by Morris water maze test (reference value: 16.97 +/- 0.8 sec); assay type: functional
[14] = system: Rattus norvegicus; assay: Cognition enhancement activity in Charles Foster albino rat model of spatial reference memory assessed as decrease in escape latency at 20 to 30 mg/kg, po administered from day 1 to 2 measured 1 hr post last dose on day 2 by Morris water maze test; assay type: functional, organism-based
[15] = system: Rattus norvegicus; assay: Cognition enhancement activity in Charles Foster albino rat model of spatial working memory assessed as escape latency at 10 mg/kg, po for administered from day 1 to 10 measured 1 hr post last dose on day 7 by Morris water maze test (reference value: 17.45 +/- 0.62 sec); assay type: functional
[16] = system: Rattus norvegicus; assay: Cognition enhancement activity in Charles Foster albino rat model of spatial working memory assessed as escape latency at 10 mg/kg, po for administered from day 1 to 10 measured 1 hr post last dose on day 8 by Morris water maze test (reference value: 16.97 +/- 0.8 sec); assay type: functional
[17] = target: T1, Acetylcholinesterase; assay: Uncompetitive inhibition of electric eel AChE using varying levels of acetylthiocholine iodide substrate preincubated for 20 mins followed by substrate addition by Lineweaver-Burk plot analysis
[18] = Selectivity index, ratio of IC50 for horse serum BuChE to IC50 for electric eel AChE
[19] = system: Rattus norvegicus; assay: Cognition enhancement activity in Charles Foster albino rat model of spatial working memory assessed as escape latency at 30 mg/kg, po for administered from day 1 to 10 measured 1 hr post last dose on day 10 by Morris water maze test (reference value: 14.12 +/- 0.78 sec); assay type: functional
[20] = system: Rattus norvegicus; assay: Cognition enhancement activity in Charles Foster albino rat model of spatial working memory assessed as escape latency at 30 mg/kg, po for administered from day 1 to 10 measured 1 hr post last dose on day 9 by Morris water maze test (reference value: 17.38 +/- 0.79 sec); assay type: functional
[21] = system: Rattus norvegicus; assay: Cognition enhancement activity in Charles Foster albino rat model of spatial reference memory assessed as increase in time spent in target quadrant during probe trial at 10 to 30 mg/kg, po administered from day 1 to 4 measured 1 hr post last dose on day 4 by Morris water maze test; assay type: functional, organism-based
[22] = system: Rattus norvegicus; assay: Cognition enhancement activity in Charles Foster albino rat model of spatial reference memory assessed as decrease in escape latency at 10 mg/kg, po administered from day 1 to 2 measured 1 hr post last dose on day 2 by Morris water maze test; assay type: functional, organism-based
[23] = system: Rattus norvegicus; assay: Cognition enhancement activity in Charles Foster albino rat model of spatial reference memory assessed as increase in time spent in target quadrant during probe trial at 10 mg/kg, po for 4 days administered from day 1 to 4 measured 1 hr post last dose on day 4 by Morris water maze test; assay type: functional, organism-based

Structure (SMILES) | IC50 [4] | IC50 [6] | Ratio IC50 [18] | also measured
COc1cc(/N=C/c2cc(OC)c(OC)c(OC)c2)cc(OC)c1 | 0.82 µM | 328 µM | 402 | Time [1]: 16.95 s; Activity [2]: Active; Time [3]: 8.87 s; Time [5]: 12.23 s; Activity [7]: 30.85 nmol/min; Time [8]: 16.87 s; Activity [9]: Active; Time [10]: 15.23 s; Time [11]: 15.12 s; Time [12]: 10.2 s; Time [13]: 15.69 s; Activity [14]: Active; Time [15]: 17.57 s; Time [16]: 15.45 s; Ki [17]: 0.72 µM; Time [19]: 8.92 s; Time [20]: 10.37 s; Activity [21]: Active
COc1cc2c(cc1OC)C(=O)C(CC1CCN(Cc3ccccc3)CC1)C2 (configuration not stated) [DONEPEZIL] | – | – | – | Activity [2]: Active; Activity [9]: Active; Activity [22]: Active; Time [11]: 7.78 s; Time [12]: 7.33 s; Activity [23]: Active; Time [15]: 16.88 s; Time [16]: 14.38 s
COc1cc(/C=N/c2ccc(C(=O)O)cc2)cc(OC)c1OC | 11.5 µM | 378 µM | 32.7 | –
COc1cc(/N=C/c2ccccc2O)cc(OC)c1 | 25.5 µM | 747 µM | 29.2 | –
O=C(O)c1ccc(/N=C/c2ccccc2)cc1 | 12.6 µM | 502 µM | 39.7 | –
O=C(O)c1ccc(/N=C/c2ccccc2[N+](=O)[O-])cc1 | 6 µM | 387 µM | 64.5 | –
COc1ccc(/C(=N\c2ccc(C(=O)O)cc2)c2ccccc2)cc1 | 6.09 µM | 292 µM | 47.9 | –
COc1ccc(/C(=N\c2cc(OC)cc(OC)c2)c2ccccc2)cc1 | 4.37 µM | 284 µM | 65.1 | –
O=C(O)c1ccc(/N=C/c2ccccc2O)cc1 | 18 µM | 717 µM | 39.8 | –
O=C(O)c1ccc(/N=C/c2ccc([N+](=O)[O-])cc2)cc1 | 5.95 µM | 217 µM | 36.5 | –
COc1cc(/C(C)=N/c2ccc(C(=O)O)cc2)ccc1O | 3.93 µM | 839 µM | 214 | –
COc1cc(/N=C/c2ccc([N+](=O)[O-])cc2)cc(OC)c1 | 7.01 µM | 452 µM | 64.5 | –
COc1cc(/N=C/c2ccccc2[N+](=O)[O-])cc(OC)c1 | 14.3 µM | 457 µM | 31.8 | –
